Measurements: article PMC5171790, “Ribavirin suppresses bacterial virulence by targeting LysR-type transcriptional regulators” (Scientific Reports, 2016)
pKd: −log10 of the molar value.

What was measured:
AphB = target: T1, AphB (Vibrio cholerae, UniProt Q9KT56); test: biochemical
T1 construct: gene VC_1049

Hrg = test: ITC; conditions: 10 mM sodium phosphate, 50 mM NaCl, pH 7.4, 25 °C; single-site model

NC(=O)c1ncn([C@@H]2O[C@H](CO)[C@@H](O)[C@H]2O)n1 [ribavirin, 1-D-ribofuranosyl-1H-1,2,4-triazole-3-carboxamide]
pKd (AphB): ~3.52 | pKd (Hrg): 3.63
